{"source": "PubChem BioAssay AID2060899", "about": "(Molecular Pharmacology Branch, DTP, NCI, 2025)", "test_system": "565726-208-R1-J5-PDC complex spheroids, growth inhibition", "assay": "Anticancer human tumor 565726-208-R1-J5-PDC patient-derived pancreatic adenocarcinoma cell line growth inhibition [RAS]", "conditions": "for viability, T/C: stronger effect = lower value", "method_in_brief": "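Multi-cell-type spheroids: tumor cells plus HUVEC endothelial cells and mesenchymal stem cells. RAS-pathway inhibitors were combined with targeted agents, each dosed in half-log steps down from clinical Cmax, or from 10 microM when Cmax was unknown.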", "data": [{"compound": "C=CC(=O)N1CCN(c2nc(OCC3CCCN3C)nc3c(F)c(-c4nc(N)cc(C)c4C(F)(F)F)c(Cl)cc23)C(C)C1", "note": "(configuration not stated) + CCn1c(-c2cc(N3CCN(C)CC3)cnc2C(C)OC)c2c3cc(ccc31)-c1csc(n1)CC(NC(=O)C1CC1C)C(=O)N1CCCC(N1)C(=O)OCC(C)(C)C2;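 also: spheroids exposed to compounds for seven days before readout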;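 as to viability, T/C: 100% = DMSO vehicle control viability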", "values": [{"measurement": "IC50", "setting": "curve of first compound, second compound 0.000949 µM", "value": "> 1000", "unit": "nM"}, {"measurement": "IC50", "setting": "curve of first compound, second compound 0.003 µM", "value": 6.29, "unit": "nM"}, {"measurement": "IC50", "setting": "curve of first compound, second compound 0.00949 µM", "value": "< 3.16", "unit": "nM"}, {"measurement": "IC50", "setting": "curve of first compound, second compound 0.03 µM", "value": "< 3.16", "unit": "nM"}, {"measurement": "IC50", "setting": "curve of first compound, second compound 0.0949 µM", "value": "< 3.16", "unit": "nM"}, {"measurement": "IC50", "setting": "curve of first compound, second compound 0.3 µM", "value": "< 3.16", "unit": "nM"}, {"measurement": "viability, T/C", "setting": "second compound 0.000949 µM, first compound 0.00316 µM", "value": 63.5, "unit": "%"}, {"measurement": "viability, T/C", "setting": "second compound 0.000949 µM, first compound 0.01 µM", "value": 59.2, "unit": "%"}, {"measurement": "viability, T/C", "setting": "second compound 0.000949 µM, first compound 0.0316 µM", "value": 61.2, "unit": "%"}, {"measurement": "viability, T/C", "setting": "second compound 0.000949 µM, first compound 0.1 µM", "value": 63.1, "unit": "%"}, {"measurement": "viability, T/C", "setting": "second compound 0.000949 µM, first compound 0.316 µM", "value": 62.5, "unit": "%"}, {"measurement": "viability, T/C", "setting": "second compound 0.000949 µM, first compound 1 µM", "value": 57.9, "unit": "%"}, {"measurement": "viability, T/C", "setting": "second compound 0.003 µM, first compound 0.00316 µM", "value": 50.9, "unit": "%"}, {"measurement": "viability, T/C", "setting": "second compound 0.003 µM, first compound 0.01 µM", "value": 43.8, "unit": "%"}, {"measurement": "viability, T/C", "setting": "second compound 0.003 µM, first compound 0.0316 µM", "value": 53.3, "unit": "%"}, {"measurement": "viability, T/C", "setting": "second compound 0.003 µM, first compound 0.1 µM", "value": 51.4, "unit": "%"}, {"measurement": "viability, T/C", "setting": "second compound 0.003 µM, first compound 0.316 µM", "value": 50.5, "unit": "%"}, {"measurement": "viability, T/C", "setting": "second compound 0.003 µM, first compound 1 µM", "value": 43.5, "unit": "%"}, {"measurement": "viability, T/C", "setting": "second compound 0.00949 µM, first compound 0.00316 µM", "value": 40.5, "unit": "%"}, {"measurement": "viability, T/C", "setting": "second compound 0.00949 µM, first compound 0.01 µM", "value": 39.7, "unit": "%"}, {"measurement": "viability, T/C", "setting": "second compound 0.00949 µM, first compound 0.0316 µM", "value": 34, "unit": "%"}, {"measurement": "viability, T/C", "setting": "second compound 0.00949 µM, first compound 0.1 µM", "value": 41.8, "unit": "%"}, {"measurement": "viability, T/C", "setting": "second compound 0.00949 µM, first compound 0.316 µM", "value": 39.9, "unit": "%"}, {"measurement": "viability, T/C", "setting": "second compound 0.00949 µM, first compound 1 µM", "value": 34.1, "unit": "%"}, {"measurement": "viability, T/C", "setting": "second compound 0.03 µM, first compound 0.00316 µM", "value": 29, "unit": "%"}, {"measurement": "viability, T/C", "setting": "second compound 0.03 µM, first compound 0.01 µM", "value": 32.3, "unit": "%"}, {"measurement": "viability, T/C", "setting": "second compound 0.03 µM, first compound 0.0316 µM", "value": 29.9, "unit": "%"}, {"measurement": "viability, T/C", "setting": "second compound 0.03 µM, first compound 0.1 µM", "value": 31.7, "unit": "%"}, {"measurement": "viability, T/C", "setting": "second compound 0.03 µM, first compound 0.316 µM", "value": 34.5, "unit": "%"}, {"measurement": "viability, T/C", "setting": "second compound 0.03 µM, first compound 1 µM", "value": 29.4, "unit": "%"}, {"measurement": "viability, T/C", "setting": "second compound 0.0949 µM, first compound 0.00316 µM", "value": 23.1, "unit": "%"}, {"measurement": "viability, T/C", "setting": "second compound 0.0949 µM, first compound 0.01 µM", "value": 27.1, "unit": "%"}, {"measurement": "viability, T/C", "setting": "second compound 0.0949 µM, first compound 0.0316 µM", "value": 25.5, "unit": "%"}, {"measurement": "viability, T/C", "setting": "second compound 0.0949 µM, first compound 0.1 µM", "value": 27.5, "unit": "%"}, {"measurement": "viability, T/C", "setting": "second compound 0.0949 µM, first compound 0.316 µM", "value": 29.2, "unit": "%"}, {"measurement": "viability, T/C", "setting": "second compound 0.0949 µM, first compound 1 µM", "value": 24.3, "unit": "%"}, {"measurement": "viability, T/C", "setting": "second compound 0.3 µM, first compound 0.00316 µM", "value": 22.6, "unit": "%"}, {"measurement": "viability, T/C", "setting": "second compound 0.3 µM, first compound 0.01 µM", "value": 22.1, "unit": "%"}, {"measurement": "viability, T/C", "setting": "second compound 0.3 µM, first compound 0.0316 µM", "value": 23.2, "unit": "%"}, {"measurement": "viability, T/C", "setting": "second compound 0.3 µM, first compound 0.1 µM", "value": 22.1, "unit": "%"}, {"measurement": "viability, T/C", "setting": "second compound 0.3 µM, first compound 0.316 µM", "value": 25.6, "unit": "%"}, {"measurement": "viability, T/C", "setting": "second compound 0.3 µM, first compound 1 µM", "value": 22.6, "unit": "%"}]}, {"compound": "CC(=O)OC12COC1CC(O)C1(C)C(=O)C(O)C3=C(C)C(OC(=O)C(O)C(NC(=O)OC(C)(C)C)c4ccccc4)CC(O)(C(OC(=O)c4ccccc4)C21)C3(C)C", "note": "(configuration not stated) + C#Cc1c(F)ccc2cc(O)cc(-c3ncc4c(N5CC6CCC(C5)N6)nc(OCC56CCCN5CC(F)C6)nc4c3F)c12", "values": [{"measurement": "IC50", "setting": "curve of first compound, second compound 0.0316 µM", "value": "< 31.6", "unit": "nM"}, {"measurement": "IC50", "setting": "curve of first compound, second compound 0.1 µM", "value": "< 31.6", "unit": "nM"}, {"measurement": "IC50", "setting": "curve of first compound, second compound 0.316 µM", "value": "< 31.6", "unit": "nM"}, {"measurement": "IC50", "setting": "curve of first compound, second compound 1 µM", "value": "< 31.6", "unit": "nM"}, {"measurement": "IC50", "setting": "curve of first compound, second compound 3.16 µM", "value": "< 31.6", "unit": "nM"}, {"measurement": "IC50", "setting": "curve of first compound, second compound 10 µM", "value": "< 31.6", "unit": "nM"}, {"measurement": "viability, T/C", "setting": "second compound 0.0316 µM, first compound 0.0316 µM", "value": 18.9, "unit": "%"}, {"measurement": "viability, T/C", "setting": "second compound 0.0316 µM, first compound 0.1 µM", "value": 20.3, "unit": "%"}, {"measurement": "viability, T/C", "setting": "second compound 0.0316 µM, first compound 0.316 µM", "value": 14.2, "unit": "%"}, {"measurement": "viability, T/C", "setting": "second compound 0.0316 µM, first compound 1 µM", "value": 19.1, "unit": "%"}, {"measurement": "viability, T/C", "setting": "second compound 0.0316 µM, first compound 3.16 µM", "value": 21.4, "unit": "%"}, {"measurement": "viability, T/C", "setting": "second compound 0.0316 µM, first compound 10 µM", "value": 27, "unit": "%"}, {"measurement": "viability, T/C", "setting": "second compound 0.1 µM, first compound 0.0316 µM", "value": 16.9, "unit": "%"}, {"measurement": "viability, T/C", "setting": "second compound 0.1 µM, first compound 0.1 µM", "value": 20.3, "unit": "%"}, {"measurement": "viability, T/C", "setting": "second compound 0.1 µM, first compound 0.316 µM", "value": 19.1, "unit": "%"}, {"measurement": "viability, T/C", "setting": "second compound 0.1 µM, first compound 1 µM", "value": 15.5, "unit": "%"}, {"measurement": "viability, T/C", "setting": "second compound 0.1 µM, first compound 3.16 µM", "value": 18.8, "unit": "%"}, {"measurement": "viability, T/C", "setting": "second compound 0.1 µM, first compound 10 µM", "value": 29.8, "unit": "%"}, {"measurement": "viability, T/C", "setting": "second compound 0.316 µM, first compound 0.0316 µM", "value": 18.8, "unit": "%"}, {"measurement": "viability, T/C", "setting": "second compound 0.316 µM, first compound 0.1 µM", "value": 21.2, "unit": "%"}, {"measurement": "viability, T/C", "setting": "second compound 0.316 µM, first compound 0.316 µM", "value": 16.1, "unit": "%"}, {"measurement": "viability, T/C", "setting": "second compound 0.316 µM, first compound 1 µM", "value": 18.1, "unit": "%"}, {"measurement": "viability, T/C", "setting": "second compound 0.316 µM, first compound 3.16 µM", "value": 22.8, "unit": "%"}, {"measurement": "viability, T/C", "setting": "second compound 0.316 µM, first compound 10 µM", "value": 30.4, "unit": "%"}, {"measurement": "viability, T/C", "setting": "second compound 1 µM, first compound 0.0316 µM", "value": 20, "unit": "%"}, {"measurement": "viability, T/C", "setting": "second compound 1 µM, first compound 0.1 µM", "value": 21.3, "unit": "%"}, {"measurement": "viability, T/C", "setting": "second compound 1 µM, first compound 0.316 µM", "value": 14.5, "unit": "%"}, {"measurement": "viability, T/C", "setting": "second compound 1 µM, first compound 1 µM", "value": 17.3, "unit": "%"}, {"measurement": "viability, T/C", "setting": "second compound 1 µM, first compound 3.16 µM", "value": 24.9, "unit": "%"}, {"measurement": "viability, T/C", "setting": "second compound 1 µM, first compound 10 µM", "value": 26.6, "unit": "%"}, {"measurement": "viability, T/C", "setting": "second compound 3.16 µM, first compound 0.0316 µM", "value": 19.3, "unit": "%"}, {"measurement": "viability, T/C", "setting": "second compound 3.16 µM, first compound 0.1 µM", "value": 24.1, "unit": "%"}, {"measurement": "viability, T/C", "setting": "second compound 3.16 µM, first compound 0.316 µM", "value": 23.5, "unit": "%"}, {"measurement": "viability, T/C", "setting": "second compound 3.16 µM, first compound 1 µM", "value": 19.9, "unit": "%"}, {"measurement": "viability, T/C", "setting": "second compound 3.16 µM, first compound 3.16 µM", "value": 25.9, "unit": "%"}, {"measurement": "viability, T/C", "setting": "second compound 3.16 µM, first compound 10 µM", "value": 26.7, "unit": "%"}, {"measurement": "viability, T/C", "setting": "second compound 10 µM, first compound 0.0316 µM", "value": 17.7, "unit": "%"}, {"measurement": "viability, T/C", "setting": "second compound 10 µM, first compound 0.1 µM", "value": 23.9, "unit": "%"}, {"measurement": "viability, T/C", "setting": "second compound 10 µM, first compound 0.316 µM", "value": 22.1, "unit": "%"}, {"measurement": "viability, T/C", "setting": "second compound 10 µM, first compound 1 µM", "value": 23.1, "unit": "%"}, {"measurement": "viability, T/C", "setting": "second compound 10 µM, first compound 3.16 µM", "value": 21, "unit": "%"}, {"measurement": "viability, T/C", "setting": "second compound 10 µM, first compound 10 µM", "value": 22.4, "unit": "%"}]}, {"compound": "C=CC(=O)Nc1cc(Nc2nccc(-c3cn(C)c4ccccc34)n2)c(OC)cc1N(C)CCN(C)C", "values": [{"measurement": "viability, T/C", "setting": "compound 0.0316 µM", "value": "92.9% [middle of 4 runs]"}, {"measurement": "viability, T/C", "setting": "compound 0.1 µM", "value": "85.7% [middle of 4 runs]"}, {"measurement": "IC50", "setting": "curve of compound", "value": "> 1000", "unit": "nM"}]}]}
